Format in all cases: cell-based
For assay [1], the system named is SKOV3-TR. The experiment in a line: Crystal violet staining, cell survival rate and cell count, resistant line. The conditions noted are these: 3 days; for anticancer-enhancing effect of doxetaxel, optical density at 570 nm (crystal violet) / anticancer-enhancing effect of paclitaxel, optical density at 570 nm (crystal violet): S-form 0.5 μM or 2 μM pretreated 4 hours; for anticancer-enhancing effect of doxetaxel, optical density at 570 nm (crystal violet): then 0.9 μM doxetaxel, compared to doxetaxel+ethanol group; for anticancer-enhancing effect of paclitaxel, optical density at 570 nm (crystal violet): then 4 μM paclitaxel, compared to paclitaxel+ethanol group; for optical density at 570 nm (crystal violet), anticancer drug alone: 4 μM paclitaxel or 0.9 μM doxetaxel, compared to None or DMSO-treated groups. The method, then:
(§1) The two cancer cell lines growing on a 12-well plate were pretreated with 102 S-forms at a low concentration (0.5 μM) and a high concentration (2 μM) for 4 hours, and the SKOV3-TR cell line was then treated with 4 μM paclitaxel, and the SKOV3 cell line was treated with 0.05 μM paclitaxel. For the morphological analysis of the cells, the cells treated with None (a group that was treated with nothing), DMSO (a paclitaxel solvent), ethanol (EtOH) (an S-form solvent), DMSO+EtOH, paclitaxel, paclitaxel+ethanol (Pacli+EtOH), and 102 S-forms were analyzed after 1, 2, and 3 days, and images were captured. For cellular metabolism analysis, WST-1 analyses were performed after 3 days of the combined treatment with paclitaxel and S-forms. The cell survival rates were analyzed on the same experimental groups using a crystal violet staining method.
The two cell lines growing on a 12-well plate were pretreated with an S-form at a low concentration (0.5 μM) and a high concentration (2 μM) for 4 hours, and the SKOV3-TR cell line was then treated with 0.9 μM doxetaxel, and the SKOV3 cell line was treated with 0.5 μM doxetaxel. For the morphological analysis of the cells, the cells treated with None (a group that was treated with nothing), DMSO (a doxetaxel solvent), ethanol (EtOH) (an S-form solvent), DMSO+EtOH, doxetaxel, doxetaxel+ethanol (Doxetaxel+EtOH), and S-forms were analyzed after 1, 2, and 3 days, and images were captured. For cellular metabolism analysis, WST-1 analyses were performed after 3 days of the combined treatment with doxetaxel and S-forms. The cell survival rates were analyzed on the same experimental groups using a crystal violet staining method.
Based on the crystal violet staining in which the cell survival rates and the cell counts were analyzed, a decrease in cell counts in SKOV3-TR and SKOV3 by treatment with paclitaxel was induced through a decrease in cell survival rate. […] The crystal violet staining results of SKOV3-TR by treatment with paclitaxel are shown in FIG. 11, and the crystal violet staining results of SKOV3 are shown in FIG. 12. The crystal violet staining results of SKOV3-TR by treatment with doxetaxel are shown in FIG. 25, and the crystal violet staining results of SKOV3 are shown in FIG. 26.
The optical densities at 570 nm were reduced with the decreasing cell counts in the paclitaxel-treated groups due to the phenomena such as the induction of cell death and the inhibition of cell growth in SKOV3-TR and SKOV3, compared to the None or DMSO-treated groups. […] Also, it can be seen that the dose-response relationship was satisfied because a decrease in cell survival rate by paclitaxel in SKOV3-TR was further promoted at a high concentration (2 μM) of the S-forms as compared to a low concentration (0.5 μM) of the S-forms. For the purpose of analysis, images of the 102 experimental groups after the cell lines were stained with crystal violet were captured after 3 days of the treatment. The staining degree was determined by ELISA by measuring the optical densities at 570 nm through dye elution as in the WST-1 analysis. During the ELISA analysis, the baseline was applied to the optical density of the paclitaxel+ethanol (Pacli+EtOH)-treated group as the control group. The optical density results of SKOV3-TR by treatment with the 102 S-forms and the optical density results of SKOV3 by treatment with the 102 S-forms are shown in FIGS. 13 to 20.
The optical densities at 570 nm were reduced with the decreasing cell counts in the doxetaxel-treated groups due to the phenomena such as the induction of cell death and the inhibition of cell growth in SKOV3-TR and SKOV3, compared to the None or DMSO-treated groups. […] Also, it can be seen that the dose-response relationship was satisfied because a decrease in cell survival rate by doxetaxel in SKOV3-TR was further promoted at a high concentration (2 μM) of the S-forms as compared to a low concentration (0.5 μM) of the S-forms. […]

Assay [2] concerns SKOV3. The experiment in a line: WST-1 analysis of cellular metabolism, parental line. The settings on record: 0.05 μM paclitaxel or 0.5 μM doxetaxel, 3 days, compared to None or DMSO-treated groups. The method, then:
(§2) A cell experiment was performed on an epithelial ovarian cancer cell line SKOV3 and SKOV3-TR which is derived therefrom and produced as a resistant cancer cell line to having resistance to the anticancer drug paclitaxel.
as §1, with “For cellular metabolism analysis, WST-1 analyses were performed after 3 days of the combined treatment with paclitaxel and S-forms.” left out
(§3) The two cell lines growing on a 12-well plate were pretreated with an S-form at a low concentration (0.5 μM) and a high concentration (2 μM) for 4 hours, and the SKOV3-TR cell line was then treated with 0.9 μM doxetaxel, and the SKOV3 cell line was treated with 0.5 μM doxetaxel. […] The cell survival rates were analyzed on the same experimental groups using a crystal violet staining method. […]
For orientation: Tetrazolium dyes change colour on reduction, which living cells bring about.

Assay [3] deals with SKOV3-TR. The experiment in a line: WST-1 analysis of cellular metabolism, resistant line. The conditions noted are these: 4 μM paclitaxel or 0.9 μM doxetaxel, 3 days, compared to None or DMSO-treated groups. The method, then: as §2
as §1, with “For cellular metabolism analysis, WST-1 analyses were performed after 3 days of the combined treatment with paclitaxel and S-forms.” left out
as §3

The test system of assay [4] is SKOV3. The experiment in a line: Crystal violet staining, cell survival rate and cell count, parental line. The conditions noted are these: 0.05 μM paclitaxel or 0.5 μM doxetaxel, 3 days, compared to None or DMSO-treated groups. The method, then: as §1, with “For cellular metabolism analysis, WST-1 analyses were performed after 3 days of the combined treatment with paclitaxel and S-forms.” left out
The two cell lines growing on a 12-well plate were pretreated with an S-form at a low concentration (0.5 μM) and a high concentration (2 μM) for 4 hours, and the SKOV3-TR cell line was then treated with 0.9 μM doxetaxel, and the SKOV3 cell line was treated with 0.5 μM doxetaxel. For the morphological analysis of the cells, the cells treated with None (a group that was treated with nothing), DMSO (a doxetaxel solvent), ethanol (EtOH) (an S-form solvent), DMSO+EtOH, doxetaxel, doxetaxel+ethanol (Doxetaxel+EtOH), and S-forms were analyzed after 1, 2, and 3 days, and images were captured. […]

`CCc1sc2ccccc2c1CN1CCN2C(=O)CNC(=O)C2C1` (stereo not drawn) [S101, 2-((2-ethylbenzothiophene-3-yl)methyl)hexahydro-2H-pyrazino[1,2-a]pyrazine-6,9-dione]: in the assay on SKOV3-TR [1], the “anticancer-enhancing effect of doxetaxel, optical density at 570 nm (crystal violet)” value is listed as “exhibited the anticancer-enhancing effect” and the “anticancer-enhancing effect of paclitaxel, optical density at 570 nm (crystal violet)” value is “exhibited the anticancer-enhancing effect”.
Consider `CCc1sc2ccccc2c1CN1CCN2C(=O)C(C3CCCCC3)NC(=O)C2C1` (stereo not drawn) [S105], for which, in the assay with SKOV3-TR [1], the “anticancer-enhancing effect of doxetaxel, optical density at 570 nm (crystal violet)” value was “exhibited the anticancer-enhancing effect” and the “anticancer-enhancing effect of paclitaxel, optical density at 570 nm (crystal violet)” value is recorded as “exhibited the anticancer-enhancing effect”.
On to `CC(=O)O[C@@]12CO[C@@H]1C[C@H](O)[C@@]1(C)C(=O)[C@H](O)C3=C(C)[C@@H](OC(=O)[C@H](O)[C@@H](NC(=O)OC(C)(C)C)c4ccccc4)C[C@@](O)([C@@H](OC(=O)c4ccccc4)[C@H]21)C3(C)C` [doxetaxel], for which the “optical density at 450 nm (WST-1), anticancer drug alone” value with SKOV3 [2] and with SKOV3-TR [3] was “reduced” each time. Further, the “optical density at 570 nm (crystal violet), anticancer drug alone” value in the assay with SKOV3 [4] and with SKOV3-TR [1] was “reduced” throughout.
Consider `CC(=O)O[C@H]1C(=O)[C@@]2(C)[C@H]([C@H](OC(=O)c3ccccc3)[C@]3(O)C[C@H](OC(=O)[C@H](O)[C@@H](NC(=O)c4ccccc4)c4ccccc4)C(C)=C1C3(C)C)[C@]1(OC(C)=O)CO[C@@H]1C[C@@H]2O` [paclitaxel], for which the “optical density at 450 nm (WST-1), anticancer drug alone” value in the assay with SKOV3 [2] and in the assay on SKOV3-TR [3] was “reduced” each time. The “optical density at 570 nm (crystal violet), anticancer drug alone” value in the assay with SKOV3 [4] and in the assay with SKOV3-TR [1] was “reduced” throughout.

Source of the values: patent US20230019094A1, “NOVEL COMPOUND AND PHARMACEUTICAL COMPOSITION FOR PREVENTION OR TREATMENT OF CANCER COMPRISING SAME” (HOLOSMEDIC, priority 2019, published 2023).
